Results reported in US11826373B2, “Methods for treatment of diseases” (Galera Labs, LLC, priority 2011, dated 2023).

How the values were obtained:
[1] = system: healthy male and female subjects; assay: Human Phase 1 single rising dose safety and tolerability of GC4403; type: in vivo
Description: In a Phase 1 randomized, double-blind, placebo-controlled single rising dose safety, tolerability and pharmacokinetics study, 54 healthy male and female subjects were dosed from 2.2 to 25 mg of GC4403 administered intravenously over 30 minutes. Disposition of GC4403 is multi-exponential and follows linear pharmacokinetics with generally proportional increases in AUC and Cmax with increasing dose over the dose ranges studied. […] GC4403 is excreted unchanged in the urine and accounts for approximately 9 to 17% of the dose administered. No significant cardiovascular or vital sign effects, no significant physical examination abnormalities, and no significant abnormalities in routine clinical laboratory assessments were observed. Facial tingling, generalized tingling, paraesthesias and facial warmth were reported in a dose responsive manner, occurring at the 16.7 and 25 mg GC4403 doses.

Rats = assay: Rat GC4419 7-day IV study; type: in vivo
Description: A GLP toxicity study with GC4419 in bicarbonate buffer was performed. Rats (5/sex/group) were administered GC4419 as a 15 minute IV injection (4 mL/kg) at 0, 5, 10 or 15 mg/kg for 7 consecutive days. The control group received bicarbonate buffer. Evaluations for compound-related effects were based on clinical observations, body weight and food consumption. There were no deaths during the study and there were no signs of significant compound effects at any dosage.

[2] = system: radiation-induced oral mucositis; assay: Hamster model of radiation-induced oral mucositis; type: in vivo, Male Syrian golden hamsters; details: all doses (3-30 mg/kg) administered prior to irradiation
Description: GC4403 and GC4419 were studied in a hamster model of oral mucositis (OM). Irradiation of the hamster cheek pouch induces lesions that are histologically similar to OM that which occurs clinically, and develop and resolve at a similar rate to radiation-induced OM in humans. […] The animals received 40 Gy radiation localized to the everted cheek pouch and were evaluated every second day for the development of inflammation at the radiation site. Inflammation was rated on a scale of 0 (normal) to 5 (total ulceration of pouch) by a trained observer, blinded to the treatment protocol.

## [Cl][Mn-5]1234([Cl])[n+]5c6cccc5C[NH+]1[C@@H]1CCCC[C@H]1[NH+]2CC[NH+]3[C@@H]1CCCC[C@H]1[NH+]4C6 (some centres unmarked) [GC4403]
[1]; 2.2 mg, 4 subjects dosed
  Any Event (treatment-emergent adverse event): 1 (25) N (%)
  Conjunctivitis (treatment-emergent adverse event): 1 (25) N (%)
  Cough (treatment-emergent adverse event): 0 (0) N (%)
  Discolored Urine (treatment-emergent adverse event): 0 (0) N (%)
  Drowsiness (treatment-emergent adverse event): 0 (0) N (%)
  Facial Warmth (treatment-emergent adverse event): 0 (0) N (%)
  Feeling Drunk (treatment-emergent adverse event): 0 (0) N (%)
  Headache (treatment-emergent adverse event): 0 (0) N (%)
  Inj. Site Pressure (treatment-emergent adverse event): 0 (0) N (%)
  Inj. Site Reaction (treatment-emergent adverse event): 0 (0) N (%)
  Injection Site Pain (treatment-emergent adverse event): 0 (0) N (%)
  Lightheadedness (treatment-emergent adverse event): 0 (0) N (%)
  Paresthesia (treatment-emergent adverse event): 0 (0) N (%)
  Skin Tightness (treatment-emergent adverse event): 0 (0) N (%)
  Taste Perversion (treatment-emergent adverse event): 0 (0) N (%)
  Tingling (treatment-emergent adverse event): 0 (0) N (%)
  Tingling Mouth (treatment-emergent adverse event): 0 (0) N (%)
[1]; 3.3 mg, 4 subjects dosed
  Any Event (treatment-emergent adverse event): 2 (50) N (%)
  Conjunctivitis (treatment-emergent adverse event): 0 (0) N (%)
  Cough (treatment-emergent adverse event): 0 (0) N (%)
  Discolored Urine (treatment-emergent adverse event): 0 (0) N (%)
  Drowsiness (treatment-emergent adverse event): 0 (0) N (%)
  Facial Warmth (treatment-emergent adverse event): 0 (0) N (%)
  Feeling Drunk (treatment-emergent adverse event): 0 (0) N (%)
  Headache (treatment-emergent adverse event): 0 (0) N (%)
  Inj. Site Pressure (treatment-emergent adverse event): 0 (0) N (%)
  Inj. Site Reaction (treatment-emergent adverse event): 1 (25) N (%)
  Injection Site Pain (treatment-emergent adverse event): 0 (0) N (%)
  Lightheadedness (treatment-emergent adverse event): 1 (25) N (%)
  Paresthesia (treatment-emergent adverse event): 0 (0) N (%)
  Skin Tightness (treatment-emergent adverse event): 0 (0) N (%)
  Taste Perversion (treatment-emergent adverse event): 0 (0) N (%)
  Tingling (treatment-emergent adverse event): 0 (0) N (%)
  Tingling Mouth (treatment-emergent adverse event): 0 (0) N (%)
[1]; 4.9 mg, 4 subjects dosed
  Any Event (treatment-emergent adverse event): 1 (25) N (%)
  Conjunctivitis (treatment-emergent adverse event): 0 (0) N (%)
  Cough (treatment-emergent adverse event): 0 (0) N (%)
  Discolored Urine (treatment-emergent adverse event): 0 (0) N (%)
  Drowsiness (treatment-emergent adverse event): 0 (0) N (%)
  Facial Warmth (treatment-emergent adverse event): 0 (0) N (%)
  Feeling Drunk (treatment-emergent adverse event): 0 (0) N (%)
  Headache (treatment-emergent adverse event): 0 (0) N (%)
  Inj. Site Pressure (treatment-emergent adverse event): 0 (0) N (%)
  Inj. Site Reaction (treatment-emergent adverse event): 0 (0) N (%)
  Injection Site Pain (treatment-emergent adverse event): 0 (0) N (%)
  Lightheadedness (treatment-emergent adverse event): 0 (0) N (%)
  Paresthesia (treatment-emergent adverse event): 0 (0) N (%)
  Skin Tightness (treatment-emergent adverse event): 0 (0) N (%)
  Taste Perversion (treatment-emergent adverse event): 0 (0) N (%)
  Tingling (treatment-emergent adverse event): 0 (0) N (%)
  Tingling Mouth (treatment-emergent adverse event): 0 (0) N (%)
[1]; 7.4 mg, 4 subjects dosed
  Any Event (treatment-emergent adverse event): 3 (75) N (%)
  Conjunctivitis (treatment-emergent adverse event): 0 (0) N (%)
  Cough (treatment-emergent adverse event): 0 (0) N (%)
  Discolored Urine (treatment-emergent adverse event): 0 (0) N (%)
  Drowsiness (treatment-emergent adverse event): 0 (0) N (%)
  Facial Warmth (treatment-emergent adverse event): 0 (0) N (%)
  Feeling Drunk (treatment-emergent adverse event): 0 (0) N (%)
  Headache (treatment-emergent adverse event): 1 (25) N (%)
  Inj. Site Pressure (treatment-emergent adverse event): 1 (25) N (%)
  Inj. Site Reaction (treatment-emergent adverse event): 0 (0) N (%)
  Injection Site Pain (treatment-emergent adverse event): 0 (0) N (%)
  Lightheadedness (treatment-emergent adverse event): 0 (0) N (%)
  Paresthesia (treatment-emergent adverse event): 0 (0) N (%)
  Skin Tightness (treatment-emergent adverse event): 0 (0) N (%)
  Taste Perversion (treatment-emergent adverse event): 0 (0) N (%)
  Tingling (treatment-emergent adverse event): 0 (0) N (%)
  Tingling Mouth (treatment-emergent adverse event): 0 (0) N (%)
[1]; 11.1 mg, 4 subjects dosed
  Any Event (treatment-emergent adverse event): 0 (0) N (%)
  Conjunctivitis (treatment-emergent adverse event): 0 (0) N (%)
  Cough (treatment-emergent adverse event): 0 (0) N (%)
  Discolored Urine (treatment-emergent adverse event): 0 (0) N (%)
  Drowsiness (treatment-emergent adverse event): 0 (0) N (%)
  Facial Warmth (treatment-emergent adverse event): 0 (0) N (%)
  Feeling Drunk (treatment-emergent adverse event): 0 (0) N (%)
  Headache (treatment-emergent adverse event): 0 (0) N (%)
  Inj. Site Pressure (treatment-emergent adverse event): 0 (0) N (%)
  Inj. Site Reaction (treatment-emergent adverse event): 0 (0) N (%)
  Injection Site Pain (treatment-emergent adverse event): 0 (0) N (%)
  Lightheadedness (treatment-emergent adverse event): 0 (0) N (%)
  Paresthesia (treatment-emergent adverse event): 0 (0) N (%)
  Skin Tightness (treatment-emergent adverse event): 0 (0) N (%)
  Taste Perversion (treatment-emergent adverse event): 0 (0) N (%)
  Tingling (treatment-emergent adverse event): 0 (0) N (%)
  Tingling Mouth (treatment-emergent adverse event): 0 (0) N (%)
[1]; 16.7 mg, 4 subjects dosed
  Any Event (treatment-emergent adverse event): 2 (50) N (%)
  Conjunctivitis (treatment-emergent adverse event): 0 (0) N (%)
  Cough (treatment-emergent adverse event): 1 (25) N (%)
  Discolored Urine (treatment-emergent adverse event): 0 (0) N (%)
  Drowsiness (treatment-emergent adverse event): 0 (0) N (%)
  Facial Warmth (treatment-emergent adverse event): 0 (0) N (%)
  Feeling Drunk (treatment-emergent adverse event): 0 (0) N (%)
  Headache (treatment-emergent adverse event): 1 (25) N (%)
  Inj. Site Pressure (treatment-emergent adverse event): 0 (0) N (%)
  Inj. Site Reaction (treatment-emergent adverse event): 0 (0) N (%)
  Injection Site Pain (treatment-emergent adverse event): 1 (25) N (%)
  Lightheadedness (treatment-emergent adverse event): 0 (0) N (%)
  Paresthesia (treatment-emergent adverse event): 0 (0) N (%)
  Skin Tightness (treatment-emergent adverse event): 0 (0) N (%)
  Taste Perversion (treatment-emergent adverse event): 0 (0) N (%)
  Tingling (treatment-emergent adverse event): 2 (50) N (%)
  Tingling Mouth (treatment-emergent adverse event): 0 (0) N (%)
[1]; 25.0 mg, 12 subjects dosed
  Any Event (treatment-emergent adverse event): 10 (87.3) N (%)
  Conjunctivitis (treatment-emergent adverse event): 0 (0) N (%)
  Cough (treatment-emergent adverse event): 0 (0) N (%)
  Discolored Urine (treatment-emergent adverse event): 1 (8.3) N (%)
  Drowsiness (treatment-emergent adverse event): 1 (8.3) N (%)
  Facial Warmth (treatment-emergent adverse event): 1 (8.3) N (%)
  Feeling Drunk (treatment-emergent adverse event): 1 (8.3) N (%)
  Headache (treatment-emergent adverse event): 1 (8.3) N (%)
  Inj. Site Pressure (treatment-emergent adverse event): 1 (8.3) N (%)
  Inj. Site Reaction (treatment-emergent adverse event): 1 (8.3) N (%)
  Injection Site Pain (treatment-emergent adverse event): 4 (33.3) N (%)
  Lightheadedness (treatment-emergent adverse event): 2 (16.7) N (%)
  Paresthesia (treatment-emergent adverse event): 1 (8.3) N (%)
  Skin Tightness (treatment-emergent adverse event): 1 (8.3) N (%)
  Taste Perversion (treatment-emergent adverse event): 1 (8.3) N (%)
  Tingling (treatment-emergent adverse event): 3 (25.0) N (%)
  Tingling Mouth (treatment-emergent adverse event): 5 (41.7) N (%)
[1]; 2.2 to 25 mg IV over 30 minutes
  maximum tolerated dose (MTD): not established
[1]; healthy subjects
  tolerability of single doses up to 25 mg: no severe adverse events

## [Cl][Mn-5]1234([Cl])[n+]5c6cccc5C[NH+]1[C@H]1CCCC[C@@H]1[NH+]2CC[NH+]3[C@H]1CCCC[C@@H]1[NH+]4C6 (some centres unmarked) [GC4419]
Rats; males given 15 mg/kg/day, by Day 8
  decrease in body weight: approximately 10%
Rats; rats, 5, 10 or 15 mg/kg, 7 days
  mortality: no deaths
Rats; rats, males and females, 15 minute IV injection, 7 consecutive days
  NOTEL: 15 mg/kg
[2]
  development of grade 3 or greater OM: prevented the development of grade 3 or greater OM
